Experimental data as given in patent publication US20130096067A1, “DROSOPHILA TUMOR STEM CELL MODEL AND USES THEREOF” (priority 2011, published 2013).
Where a name gives a salt, the structure may show the parent alone.

Test system: Raf-1^gof intestinal tumors
Assay: Luciferase screen of FDA-approved (NCI) drugs in 96-well plates, flies with Raf-1^gof intestinal tumors; on Avg (3 + 6): test concentration or dose not given here; on Log2 (fold): test concentration or dose not given here
Format: in vivo, Drosophila
[1] = average of Day 3 and Day 6 fold
[2] = log2 of the Day 3 fold difference in luciferase relative to DMSO controls
[3] = luciferase activity relative to DMSO controls, single dose of drug for three days, 96-well plates
[4] = six-day protocol: single dose for three days, then another dose for three more days

For Nc1nc(Cl)nc2c1ncn2[C@H]1C[C@H](O)[C@@H](CO)O1 [Cladribine], the “Avg (3 + 6)” value [1] was 0.852 fold, the “Log2 (fold)” value [2] was 0.072 and the “Day 3 Fold” value [3] was 1.051 fold. The “Day 6 Fold” value [4] was 0.652 fold.
Nc1nc(Cl)nc2c1ncn2[C@@H]1O[C@H](CO)[C@@H](O)[C@@H]1F [Clofarabine] was tested, and the “Avg (3 + 6)” value [1] was 0.868 fold, the “Log2 (fold)” value [2] was −0.164 and the “Day 3 Fold” value [3] was 0.893 fold. The “Day 6 Fold” value [4] was 0.843 fold.
O=P1(N(CCCl)CCCl)NCCCO1 (centres unmarked) [Cyclophosphamide] was tested, and the “Avg (3 + 6)” value (in vivo) was 0.857 fold, the “Day 3 Fold” value (in vivo) was 0.982 fold and the “Day 6 Fold” value (in vivo) was 0.732 fold. The “Log2 (fold)” value (in vivo) was −0.025.
With Nc1ccn([C@@H]2O[C@H](CO)[C@@H](O)[C@@H]2O)c(=O)n1 [Cytarabine HCl] the “Avg (3 + 6)” value [1] was 1.112 fold, the “Log2 (fold)” value [2] was 0.100 and the “Day 3 Fold” value [3] was 1.072 fold. The “Day 6 Fold” value [4] was 1.153 fold.
For CN(C)/N=N/c1[nH]cnc1C(N)=O [Dacarbazine], the “Avg (3 + 6)” value [1] was 0.960 fold, the “Log2 (fold)” value [2] was −0.010 and the “Day 3 Fold” value [3] was 0.993 fold. The “Day 6 Fold” value [4] was 0.927 fold.
With Cc1nc(Nc2ncc(C(=O)Nc3c(C)cccc3Cl)s2)cc(N2CCN(CCO)CC2)n1 [Dasatinib] the “Avg (3 + 6)” value [1] was 1.085 fold, the “Log2 (fold)” value [2] was 0.521 and the “Day 3 Fold” value [3] was 1.435 fold. The “Day 6 Fold” value [4] was 0.736 fold.
For COc1cccc2c1C(=O)c1c(O)c3c(c(O)c1C2=O)C[C@@](O)(C(C)=O)C[C@@H]3O[C@H]1C[C@H](N)[C@H](O)[C@H](C)O1 [Daunorubicin HCl], the “Avg (3 + 6)” value [1] was 0.227 fold, the “Log2 (fold)” value [2] was −1.484 and the “Day 3 Fold” value [3] was 0.358 fold. The “Day 6 Fold” value [4] was 0.096 fold.
In the case of Nc1ncn([C@H]2C[C@H](O)[C@@H](CO)O2)c(=O)n1 [Decitabine], the “Avg (3 + 6)” value [1] is reported as 0.569 fold, the “Log2 (fold)” value [2] is reported as −1.077 and the “Day 3 Fold” value [3] is reported as 0.474 fold. The “Day 6 Fold” value [4] was 0.663 fold.
For C[C@@H](CN1CC(=O)NC(=O)C1)N1CC(=O)NC(=O)C1 [Dexrazoxone], the “Avg (3 + 6)” value [1] was 0.599 fold, the “Log2 (fold)” value [2] was −0.428 and the “Day 3 Fold” value [3] was 0.743 fold. The “Day 6 Fold” value [4] was 0.454 fold.
For CC(=O)O[C@@]12CO[C@@H]1C[C@H](O)[C@@]1(C)C(=O)[C@H](O)C3=C(C)[C@@H](OC(=O)[C@H](O)[C@@H](NC(=O)OC(C)(C)C)c4ccccc4)C[C@@](O)([C@@H](OC(=O)c4ccccc4)[C@H]21)C3(C)C [Docetaxel], the “Avg (3 + 6)” value [1] was 0.514 fold, the “Log2 (fold)” value [2] was −0.887 and the “Day 3 Fold” value [3] was 0.541 fold. For the same compound, the “Day 6 Fold” value [4] was 0.487 fold.
For COc1cccc2c1C(=O)c1c(O)c3c(c(O)c1C2=O)C[C@@](O)(C(=O)CO)C[C@@H]3O[C@H]1C[C@H](N)[C@H](O)[C@H](C)O1 [Doxorubicin HCl], the “Avg (3 + 6)” value [1] was 1.084 fold, the “Log2 (fold)” value [2] was −0.090 and the “Day 3 Fold” value [3] was 0.939 fold. The “Day 6 Fold” value [4] was 1.228 fold.
For C#Cc1cccc(Nc2ncnc3cc(OCCOC)c(OCCOC)cc23)c1 [Erlotinib HCl], the “Avg (3 + 6)” value (in vivo) was 0.986 fold, the “Day 3 Fold” value (in vivo) was 1.030 fold and the “Day 6 Fold” value (in vivo) was 0.942 fold. For the same compound, the “Log2 (fold)” value (in vivo) was 0.042.
In the case of C=C1C[C@@H]2[C@H](CC[C@]3(C)C(=O)CC[C@@H]23)[C@@]2(C)C=CC(=O)C=C12 [Exemestane], the “Avg (3 + 6)” value [1] is reported as 0.739 fold, the “Log2 (fold)” value [2] is reported as −0.246 and the “Day 3 Fold” value [3] is reported as 0.843 fold. The “Day 6 Fold” value [4] was 0.634 fold.
For O=c1[nH]c(=O)n([C@H]2C[C@H](O)[C@@H](CO)O2)cc1F [Floxuridine], the “Avg (3 + 6)” value [1] was 0.149 fold, the “Log2 (fold)” value [2] was −2.204 and the “Day 3 Fold” value [3] was 0.217 fold. The “Day 6 Fold” value [4] was 0.080 fold.
Nc1nc(F)nc2c1ncn2[C@@H]1O[C@H](CO)[C@@H](O)[C@@H]1O [Fludarabine] was tested, and the “Avg (3 + 6)” value [1] was 1.191 fold, the “Day 3 Fold” value (po, 72 h) was 1.192 fold and the “Log2 (fold)” value (po, 72 h) was 0.253.
With O=c1[nH]cc(F)c(=O)[nH]1 [Fluorouracil] the “Avg (3 + 6)” value [1] was 0.770 fold, the “Log2 (fold)” value [2] was −0.448 and the “Day 3 Fold” value [3] was 0.733 fold. For the same compound, the “Day 6 Fold” value [4] was 0.806 fold.
C[C@]12CC[C@@H]3c4ccc(O)cc4C[C@@H](CCCCCCCCC[S+]([O-])CCCC(F)(F)C(F)(F)F)[C@H]3[C@@H]1CC[C@@H]2O (some centres unmarked) [Fulvestrant] was tested, and the “Avg (3 + 6)” value [1] was 1.172 fold, the “Log2 (fold)” value [2] was −0.221 and the “Day 3 Fold” value [3] was 0.858 fold. The “Day 6 Fold” value [4] was 1.486 fold.
COc1cc2ncnc(Nc3ccc(F)c(Cl)c3)c2cc1OCCCN1CCOCC1 [Gefitinib] was tested, and the “Avg (3 + 6)” value (in vivo) was 0.886 fold.
For Nc1ccn([C@@H]2O[C@H](CO)[C@@H](O)C2(F)F)c(=O)n1 [Gemcitabine HCl], the “Avg (3 + 6)” value [1] was 0.104 fold, the “Log2 (fold)” value [2] was −2.666 and the “Day 3 Fold” value [3] was 0.158 fold. For the same compound, the “Day 6 Fold” value [4] was 0.051 fold.
For NC(=O)NO [Hydroxyurea], the “Avg (3 + 6)” value [1] was 0.990 fold, the “Log2 (fold)” value [2] was −0.184 and the “Day 3 Fold” value [3] was 0.880 fold. The “Day 6 Fold” value [4] was 1.099 fold.
For O=P1(NCCCl)OCCCN1CCCl (centres unmarked) [Ifosfamide], the “Avg (3 + 6)” value [1] was 1.004 fold, the “Log2 (fold)” value [2] was −0.026 and the “Day 3 Fold” value [3] was 0.982 fold. The “Day 6 Fold” value [4] was 1.026 fold.
Cc1ccc(NC(=O)c2ccc(CN3CCN(C)CC3)cc2)cc1Nc1nccc(-c2cccnc2)n1 [Imatinib] was tested, and the “Avg (3 + 6)” value [1] was 0.674 fold, the “Log2 (fold)” value [2] was −0.558 and the “Day 3 Fold” value [3] was 0.679 fold. For the same compound, the “Day 6 Fold” value [4] was 0.670 fold.
CC(C)Cn1cnc2c(N)nc3ccccc3c21 [Imiquimod] was tested, and the “Avg (3 + 6)” value [1] was 0.888 fold, the “Log2 (fold)” value [2] was 0.086 and the “Day 3 Fold” value [3] was 1.061 fold. The “Day 6 Fold” value [4] was 0.715 fold.
For CCc1c2c(nc3ccc(OC(=O)N4CCC(N5CCCCC5)CC4)cc13)-c1cc3c(c(=O)n1C2)COC(=O)[C@]3(O)CC [Irinotecan HCl], the “Avg (3 + 6)” value (in vivo) was 0.705 fold, the “Day 3 Fold” value (in vivo) was 0.870 fold and the “Day 6 Fold” value (in vivo) was 0.541 fold. The “Log2 (fold)” value (in vivo) was −0.201.
In the case of C/C(=C\c1csc(C)n1)[C@@H]1C[C@@H]2O[C@]2(C)CCC[C@H](C)[C@H](O)[C@@H](C)C(=O)C(C)(C)[C@@H](O)CC(=O)N1 [Ixabepilone], the “Avg (3 + 6)” value [1] is reported as 0.765 fold, the “Log2 (fold)” value [2] is reported as −0.009 and the “Day 3 Fold” value [3] is reported as 0.994 fold. For the same compound, the “Day 6 Fold” value [4] was 0.536 fold.
With CS(=O)(=O)CCNCc1ccc(-c2ccc3ncnc(Nc4ccc(OCc5cccc(F)c5)c(Cl)c4)c3c2)o1 [Lapatinib] the “Avg (3 + 6)” value [1] was 0.976 fold, the “Log2 (fold)” value [2] was −0.097 and the “Day 3 Fold” value [3] was 0.935 fold. The “Day 6 Fold” value [4] was 1.017 fold.
With Nc1cccc2c1CN(C1CCC(=O)NC1=O)C2=O (centres unmarked) [Lenalidomide] the “Avg (3 + 6)” value [1] was 0.853 fold, the “Log2 (fold)” value [2] was −0.117 and the “Day 3 Fold” value [3] was 0.922 fold. For the same compound, the “Day 6 Fold” value [4] was 0.784 fold.
For N#Cc1ccc(C(c2ccc(C#N)cc2)n2cncn2)cc1 [Letrozole], the “Avg (3 + 6)” value [1] was 1.302 fold, the “Log2 (fold)” value [2] was 0.337 and the “Day 3 Fold” value [3] was 1.263 fold. For the same compound, the “Day 6 Fold” value [4] was 1.342 fold.
In the case of O=NN(CCCl)C(=O)NC1CCCCC1 [Lomustine, CCNU, Lomustine], the “Avg (3 + 6)” value [1] is reported as 0.712 fold, the “Day 3 Fold” value (po, 72 h) is reported as 0.651 fold and the “Log2 (fold)” value (po, 72 h) is reported as −0.619.
For CC(=O)O[C@]1(C(C)=O)CC[C@H]2[C@@H]3C=C(C)C4=CC(=O)CC[C@]4(C)[C@H]3CC[C@@]21C [Megestrol acetate], the “Avg (3 + 6)” value [1] was 1.219 fold, the “Log2 (fold)” value [2] was 0.418 and the “Day 3 Fold” value [3] was 1.336 fold. For the same compound, the “Day 6 Fold” value [4] was 1.101 fold.
For N[C@@H](Cc1ccc(N(CCCl)CCCl)cc1)C(=O)O [Melphalan], the “Avg (3 + 6)” value [1] was 0.939 fold, the “Log2 (fold)” value [2] was 0.001 and the “Day 3 Fold” value [3] was 1.001 fold. The “Day 6 Fold” value [4] was 0.876 fold.
